Assay results as given in ChEMBL document CHEMBL4043225, “Identification of potent, nonabsorbable agonists of the calcium-sensing receptor for GI-specific administration” (Bioorg Med Chem Lett, 2017).

Tests used:
[1] = biological target: T1, Extracellular calcium-sensing receptor (Homo sapiens, UniProt P41180); assay: (§1) Agonist activity at human CaSR expressed in HEK293 cells assessed as increase in intracellular calcium mobilization by fluo-4AM dye based FLIPR assay; type: functional, cell-based
T1 sequence (P41180 whole entry): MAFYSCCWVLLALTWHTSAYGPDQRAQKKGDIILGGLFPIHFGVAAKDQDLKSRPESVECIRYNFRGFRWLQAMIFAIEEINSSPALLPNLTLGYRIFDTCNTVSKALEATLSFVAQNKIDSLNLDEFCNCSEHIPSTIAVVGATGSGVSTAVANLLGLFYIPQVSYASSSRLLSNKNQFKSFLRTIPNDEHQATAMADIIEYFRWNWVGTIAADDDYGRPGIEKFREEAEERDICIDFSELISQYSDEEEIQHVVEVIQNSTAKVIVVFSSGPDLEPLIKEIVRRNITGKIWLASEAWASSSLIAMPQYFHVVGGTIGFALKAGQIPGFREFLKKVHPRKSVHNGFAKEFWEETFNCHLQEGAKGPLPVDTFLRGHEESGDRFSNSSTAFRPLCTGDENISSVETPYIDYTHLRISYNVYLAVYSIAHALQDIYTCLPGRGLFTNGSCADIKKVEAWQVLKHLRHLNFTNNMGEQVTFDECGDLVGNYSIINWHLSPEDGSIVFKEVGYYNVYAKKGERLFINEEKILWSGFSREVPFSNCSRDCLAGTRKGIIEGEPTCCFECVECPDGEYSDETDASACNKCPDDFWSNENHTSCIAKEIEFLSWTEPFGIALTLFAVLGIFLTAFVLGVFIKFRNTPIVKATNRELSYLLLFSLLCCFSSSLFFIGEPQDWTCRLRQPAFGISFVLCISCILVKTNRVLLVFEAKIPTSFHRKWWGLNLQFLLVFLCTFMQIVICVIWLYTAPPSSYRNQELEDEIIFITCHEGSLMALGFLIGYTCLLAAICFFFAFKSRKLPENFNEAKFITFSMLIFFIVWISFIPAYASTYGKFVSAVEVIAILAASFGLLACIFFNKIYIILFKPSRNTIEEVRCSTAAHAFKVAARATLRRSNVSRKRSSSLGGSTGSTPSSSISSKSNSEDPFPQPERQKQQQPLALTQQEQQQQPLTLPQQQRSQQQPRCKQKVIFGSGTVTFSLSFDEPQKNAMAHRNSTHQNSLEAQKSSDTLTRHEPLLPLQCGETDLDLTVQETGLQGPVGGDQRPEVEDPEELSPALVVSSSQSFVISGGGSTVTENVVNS

[2] = biological target: T2, Extracellular calcium-sensing receptor (Homo sapiens) (UniProt P41180); assay: as §1; type: functional, cell-based
T2 sequence (whole entry): T1 sequence (P41180 whole entry)

[3] = Half-life in Sprague-Dawley rat cecal homogenates at 10 uM by LC-MS/MS analysis; type: ADME, tissue-based, Caecum
[4] = Cmax in CD rat systemic circulation at 30 mg/kg, po administered via gavage; type: ADME, organism-based; set-up: dose 30 mg/kg, route oral
[5] = Cmax in CD rat portal vein at 30 mg/kg, po administered via gavage; type: ADME, organism-based; set-up: dose 30 mg/kg, route oral
[6] = Cmax in CD rat systemic circulation at 50 mg/kg, po administered via gavage; type: ADME, organism-based; set-up: dose 50 mg/kg, route oral
[7] = Cmax in CD rat portal vein at 50 mg/kg, po administered via gavage; type: ADME, organism-based; set-up: dose 50 mg/kg, route oral
[8] = Drug recovery in CD rat feces at 30 mg/kg, po administered via gavage measured by LC-MS/MS analysis; type: ADME, organism-based; details: read-out: Drug recovery
[9] = Aqueous solubility of the compound in SGF; type: physicochemical
[10] = AUC in CD rat portal vein at 10 mg/kg, po administered via gavage; type: ADME, organism-based
Rattus norvegicus [11] = assay: Unbound Cmax in CD rat portal vein at 10 mg/kg, po administered via gavage; type: ADME, organism-based; details: in vivo
[12] = AUC in CD rat systemic circulation at 10 mg/kg, po administered via gavage; type: ADME, organism-based
[13] = Protein binding in CD rat plasma at 10 mg/kg, administered via gavage; type: ADME, organism-based; details: po, read-out: PPB (converted)
[14] = Aqueous solubility of the compound in FASSIF; type: physicochemical
[15] = biological target: T3, Extracellular calcium-sensing receptor (Rattus norvegicus) (UniProt P48442); assay: (§2) Agonist activity at rat CaSR expressed in HEK293 cells assessed as increase in intracellular calcium mobilization by fluo-4AM dye based FLIPR assay; type: functional, cell-based
T3 sequence (whole entry): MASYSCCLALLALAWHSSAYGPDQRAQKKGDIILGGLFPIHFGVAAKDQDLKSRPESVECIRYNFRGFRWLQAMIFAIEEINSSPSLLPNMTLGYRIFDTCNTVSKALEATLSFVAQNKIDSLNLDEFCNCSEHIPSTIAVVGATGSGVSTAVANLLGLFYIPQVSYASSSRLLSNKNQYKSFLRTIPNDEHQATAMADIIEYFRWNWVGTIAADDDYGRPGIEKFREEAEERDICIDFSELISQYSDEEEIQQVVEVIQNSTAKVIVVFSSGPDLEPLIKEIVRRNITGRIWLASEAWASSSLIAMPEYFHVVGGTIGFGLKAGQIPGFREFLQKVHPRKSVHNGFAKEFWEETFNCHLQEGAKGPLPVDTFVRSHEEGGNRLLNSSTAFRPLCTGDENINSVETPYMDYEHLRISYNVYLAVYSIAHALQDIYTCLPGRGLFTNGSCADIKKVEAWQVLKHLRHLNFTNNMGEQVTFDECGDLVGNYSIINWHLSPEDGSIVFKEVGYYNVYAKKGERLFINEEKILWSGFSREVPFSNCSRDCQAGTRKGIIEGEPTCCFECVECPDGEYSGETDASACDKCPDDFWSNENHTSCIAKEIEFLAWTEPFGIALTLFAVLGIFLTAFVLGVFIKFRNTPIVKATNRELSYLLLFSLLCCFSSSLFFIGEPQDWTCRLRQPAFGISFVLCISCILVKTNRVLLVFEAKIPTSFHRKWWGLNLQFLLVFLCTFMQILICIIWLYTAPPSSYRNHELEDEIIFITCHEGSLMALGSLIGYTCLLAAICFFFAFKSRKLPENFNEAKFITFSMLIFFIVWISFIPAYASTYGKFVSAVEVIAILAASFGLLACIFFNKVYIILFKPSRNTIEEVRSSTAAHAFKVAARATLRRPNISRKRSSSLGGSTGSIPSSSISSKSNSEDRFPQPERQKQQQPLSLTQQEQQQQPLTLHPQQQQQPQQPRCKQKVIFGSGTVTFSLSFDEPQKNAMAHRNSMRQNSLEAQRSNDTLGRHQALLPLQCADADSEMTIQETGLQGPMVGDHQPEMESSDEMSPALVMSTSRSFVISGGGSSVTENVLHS

[16] = biological target: T4, Extracellular calcium-sensing receptor (Rattus norvegicus, UniProt P48442); assay: as §2; type: functional, cell-based
T4 sequence (P48442 whole entry): T3 sequence (whole entry)

[17] = Aqueous solubility of the compound in FESSIF; type: physicochemical
[18] = biological target: T5, Extracellular calcium-sensing receptor (Mus musculus) (UniProt Q9QY96); assay: (§3) Agonist activity at mouse CaSR expressed in HEK293 cells assessed as increase in intracellular calcium mobilization by fluo-4AM dye based FLIPR assay; type: functional, cell-based
T5 sequence (whole entry): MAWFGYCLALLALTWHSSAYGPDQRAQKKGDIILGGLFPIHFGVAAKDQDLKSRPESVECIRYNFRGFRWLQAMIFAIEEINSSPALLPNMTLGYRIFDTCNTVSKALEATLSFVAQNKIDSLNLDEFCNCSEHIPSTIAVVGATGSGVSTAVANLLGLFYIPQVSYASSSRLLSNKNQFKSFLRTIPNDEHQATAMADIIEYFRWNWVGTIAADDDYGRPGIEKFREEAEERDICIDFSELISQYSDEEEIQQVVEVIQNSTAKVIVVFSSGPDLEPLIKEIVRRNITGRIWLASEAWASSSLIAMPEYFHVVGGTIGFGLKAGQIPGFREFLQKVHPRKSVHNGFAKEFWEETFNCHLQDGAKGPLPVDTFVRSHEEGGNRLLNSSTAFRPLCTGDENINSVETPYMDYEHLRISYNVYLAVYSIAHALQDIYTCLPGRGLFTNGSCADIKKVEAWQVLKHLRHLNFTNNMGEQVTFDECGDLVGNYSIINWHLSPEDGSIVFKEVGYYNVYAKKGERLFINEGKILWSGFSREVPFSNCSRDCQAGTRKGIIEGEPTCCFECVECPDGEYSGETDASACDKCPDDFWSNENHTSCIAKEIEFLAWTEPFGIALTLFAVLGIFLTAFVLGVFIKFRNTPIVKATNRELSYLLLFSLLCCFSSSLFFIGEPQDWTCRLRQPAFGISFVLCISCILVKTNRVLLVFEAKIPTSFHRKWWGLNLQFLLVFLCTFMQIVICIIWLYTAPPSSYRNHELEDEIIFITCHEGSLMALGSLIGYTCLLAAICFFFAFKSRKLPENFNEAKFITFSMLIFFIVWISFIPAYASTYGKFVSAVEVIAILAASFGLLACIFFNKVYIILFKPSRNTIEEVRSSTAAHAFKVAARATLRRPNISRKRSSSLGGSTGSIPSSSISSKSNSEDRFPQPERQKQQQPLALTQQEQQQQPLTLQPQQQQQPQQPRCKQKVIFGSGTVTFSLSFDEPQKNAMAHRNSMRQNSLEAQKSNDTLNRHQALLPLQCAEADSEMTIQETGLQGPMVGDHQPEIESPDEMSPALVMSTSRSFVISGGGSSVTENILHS

[19] = biological target: T6, Extracellular calcium-sensing receptor (Mus musculus, UniProt Q9QY96); assay: as §3; type: functional, cell-based
T6 sequence (Q9QY96 whole entry): T5 sequence (whole entry)

Rattus norvegicus [20] = assay: Unbound Cmax in CD rat systemic circulation at 10 mg/kg, po administered via gavage; type: ADME, organism-based; details: in vivo

| Structure (SMILES) | EC50 ([1]; read-out: pEC50 (converted)) | %max [2] | half-life at 10 µM [3] | further results |
| --- | --- | --- | --- | --- |
| C[C@@H](N[C@H]1CCN(c2ccc(S(=O)(=O)NC(=O)CCC(=O)O)cc2)C1)c1cccc2ccccc12 | 501 nM | 74% | 10.5 h |  |
| C[C@@H](N[C@H]1CCN(c2ccc(S(=O)(=O)NC(=O)CC(=O)O)cc2)C1)c1cccc2ccccc12 | 1580 nM | 79% |  |  |
| C[C@@H](N[C@H]1CCN(c2ccc(S(N)(=O)=O)cc2)C1)c1cccc2ccccc12 | 20 nM | 87% | > 12 h |  |
| C[C@@H](N[C@H]1CCN(c2ccc(P(=O)(O)O)cc2)C1)c1cccc2ccccc12 | 3160 nM | 70% |  |  |
| C[C@@H](N[C@H]1CCN(c2ccc(C(=O)NCCS(=O)(=O)O)cc2)C1)c1cccc2ccccc12 | 39.8 nM | 85% | 0.8 h |  |
| C[C@@H](N[C@H]1CCN(c2ccc(C(=O)NCCCCNC(CO)(CO)CO)cc2)C1)c1cccc2ccccc12 | 15.8 nM | 92% | 8 h | Cmax [4]: 440 ng/mL; Cmax [5]: 540 ng/mL |
| C[C@@H](N[C@H]1CCN(c2ccc(C(=O)NCCNC(CO)(CO)CO)cc2)C1)c1cccc2ccccc12 | 7.94 nM | 101% | 3.4 h |  |
| C[C@@H](N[C@H]1CCN(c2ccc(S(=O)(=O)NCC(=O)O)cc2)C1)c1cccc2ccccc12 | 39.8 nM | 83% | > 12 h | Cmax [6]: 317 ng/mL; Cmax [7]: 1120 ng/mL |
| C[C@@H](N[C@H]1CCN(c2ccc(C(=O)O)cc2)C1)c1cccc2ccccc12 | 158 nM | 84% | > 12 h |  |
| C[C@@H](N[C@H]1CCN(c2ccc(C(=O)N[C@H](CCCCN)C(=O)O)cc2)C1)c1cccc2ccccc12 | 100 nM | 96% | 4.3 h |  |
| C[C@@H](N[C@H]1CCN(c2ccc(C(=O)NC(CO)(CO)CO)cc2)C1)c1cccc2ccccc12 | 39.8 nM | 80% | > 12 h |  |
| C[C@@H](N[C@H]1CCN(c2ccc(C(=O)NCCn3cnc(C(=O)O)c3C(=O)O)cc2)C1)c1cccc2ccccc12 | 5.01 nM | 96% | 7.8 h | Cmax [4]: < 4 ng/mL; Cmax [5]: 6 ng/mL; dose excreted [8]: 54% |
| C[C@@H](N[C@H]1CCN(c2ccc(C(=O)NCC(=O)O)cc2)C1)c1cccc2ccccc12 | 79.4 nM | 69% |  |  |
| C[C@@H](N[C@H]1CCN(c2ccc(C(=O)NCCN)cc2)C1)c1cccc2ccccc12 | 12.6 nM | 75% |  |  |
| C[C@@H](N[C@H]1CCN(c2ccc(S(=O)(=O)NCCn3cnc(C(=O)O)c3C(=O)O)cc2)C1)c1cccc2ccccc12 | 7.94 nM | 127% |  |  |
| C[C@@H](N[C@H]1CCN(c2ccc(C(=O)N[C@H](CC(=O)O)C(=O)O)cc2)C1)c1cccc2ccccc12 | 398 nM | 79% | 9.1 h | Cmax [4]: 9 ng/mL; Cmax [5]: 12 ng/mL; dose excreted [8]: 65% |
| C[C@@H](N[C@H]1CCN(c2ccc(S(=O)(=O)NCCN(C)C)cc2)C1)c1cccc2ccccc12 | 12.6 nM | 84% |  |  |
| C[C@@H](N[C@H]1CCN(c2ccc(C(=O)NCC[N+](C)(C)C)cc2)C1)c1cccc2ccccc12.[Cl-] | 126 nM | 83% | > 12 h | Cmax [6]: 154 ng/mL; Cmax [7]: 164 ng/mL |
| C[C@@H](N[C@H]1CCN(c2ccc(C(=O)NCCCN3CCC(C(=O)O)CC3)cc2)C1)c1cccc2ccccc12 |  | 84 to 93% | > 12 h | solubility [9]: > 1000 µg/mL; AUC [10]: 265 ng·h/mL; fCmax (Rattus norvegicus [11]): 7 nM; AUC [12]: 266 ng·h/mL; Cmax [4]: 48 ng/mL; fraction unbound [13]: 0.07; solubility [14]: > 1000 µg/mL; EC50 ([1]; read-out: EC50): 50 nM; %max [15]: 66%; EC50 [16]: 316 nM; Cmax [5]: 57 ng/mL; solubility [17]: > 1000 µg/mL; %max [18]: 62%; EC50 [19]: 251 nM; dose excreted [8]: 86.3%; fCmax (Rattus norvegicus [20]): 3 ng/mL |
